Assay results: PMC4467398, “Preclinical antitumor activity of ST7612AA1: a new oral thiol-based histone deacetylase (HDAC) inhibitor” (Oncotarget, 2014)

Tested on: DOHH2 and TMD8 DLBCL cells
Test: Gene expression profiling (HumanHT-12 v4 BeadChip, limma), ST7612AA1 300 nM 8 hrs vs DMSO
Type: cell-based, human
Settings: 300 nM 8 hrs vs DMSO

## CC(=O)SCCCCC[C@H](NC(=O)[C@H]1CCC(=O)N1)C(=O)Nc1ccccc1 [ST7612AA1]
  log ratio POGK (ILMN_1756669): -8.84E-01
  log ratio POLR1C (ILMN_1746686): -8.40E-01
  log ratio PPP1R13B (ILMN_1748831): 6.43E-01
  log ratio PPP2R1A (ILMN_1810467): -5.99E-01
  log ratio PPRC1 (ILMN_1796210): -1.03E+00
  log ratio PRDM10 (ILMN_2352293): -8.83E-01
  log ratio PRDX2 (probe ILMN_1767766): 8.35E-01
  log ratio PRDX2 (probe ILMN_2382829): 7.41E-01
  log ratio PRKAR1B (ILMN_1674390): -8.76E-01
  log ratio PRKCB1 (ILMN_1806908): 6.12E-01
  log ratio PRMT3 (ILMN_1662964): -1.23E+00
  log ratio PSMB5 (ILMN_1744649): -9.34E-01
  log ratio PSMB10 (ILMN_1683026): -8.38E-01
  log ratio PSMG4 (ILMN_3224204): -5.99E-01
  log ratio PTGER4 (probe ILMN_1795930): 9.03E-01
  log ratio PTMS (ILMN_1721046): 6.73E-01
  log ratio PTPN7 (ILMN_1715214): -6.16E-01
  log ratio PTS (ILMN_2162328): -8.08E-01
  log ratio PTTG1 (probe ILMN_1753196): 6.92E-01
  log ratio PTTG1IP (ILMN_1802251): 6.45E-01
  log ratio PTTG1IP (ILMN_2128750): 6.16E-01
  log ratio PTTG3P (ILMN_2049021): 6.08E-01
  log ratio QTRTD1 (ILMN_2155516): -7.99E-01
  log ratio RAB8B (probe ILMN_2173004): 8.71E-01
  log ratio RAB11FIP2 (ILMN_2072541): -5.92E-01
  log ratio RAB11FIP5 (ILMN_1740604): 6.69E-01
  log ratio RAB24 (probe ILMN_2379718): 7.77E-01
  log ratio RABEPK (ILMN_1741957): -9.81E-01
  log ratio RABGAP1 (probe ILMN_2061950): 6.86E-01
  log ratio RAD9A (ILMN_1684183): 6.33E-01
  log ratio RAN (ILMN_1757384): -8.66E-01
  log ratio RAPGEF2 (probe ILMN_3247261): 8.54E-01
  log ratio RASAL1 (probe ILMN_1793517): 7.10E-01
  log ratio RASD2 (probe ILMN_2170209): 7.75E-01
  log ratio RASGRP3 (ILMN_1727045): -9.48E-01
  log ratio RASL10A (ILMN_1747673): 6.25E-01
  log ratio RASSF2 (ILMN_1709683): -8.05E-01
  log ratio RBM23 (ILMN_1780756): -8.92E-01
  log ratio RBM23 (ILMN_2363106): -9.17E-01
  log ratio RBM38 (ILMN_2404049): 6.27E-01
  log ratio RCAN1 (ILMN_2367239): 6.08E-01
  log ratio RCC2 (ILMN_1720124): -8.76E-01
  log ratio REEP2 (probe ILMN_1666057): 6.85E-01
  log ratio RFC1 (probe ILMN_2217935): 7.23E-01
  log ratio RGS19 (ILMN_1677085): -9.37E-01
  log ratio RHBDD2 (probe ILMN_1809437): 7.80E-01
  log ratio RHBDD2 (probe ILMN_2406410): 8.04E-01
  log ratio RHOBTB3 (probe ILMN_1744949): 8.25E-01
  log ratio RHOC (probe ILMN_1673305): 9.02E-01
  log ratio RIOK3 (ILMN_2404135): 5.99E-01
  log ratio RNASE4 (probe ILMN_1776602): 7.33E-01
  log ratio RND2 (probe ILMN_1736533): 7.06E-01
  log ratio RNF24 (probe ILMN_1717809): 7.24E-01
  log ratio RNF135 (ILMN_1700660): -6.19E-01
  log ratio RNFT2 (ILMN_3299905): 6.00E-01
  log ratio RPIA (ILMN_1714809): -9.23E-01
  log ratio RPL29 (ILMN_1737517): -1.05E+00
  log ratio RPL29 (ILMN_1771051): -1.03E+00
  log ratio RPL36A (ILMN_2112811): -6.12E-01
  log ratio RPP40 (ILMN_1810423): -1.07E+00
  log ratio RPRD2 (ILMN_3238889): -7.98E-01
  log ratio RPS6KA4 (ILMN_1756204): -7.98E-01
  log ratio RRBP1 (ILMN_2360784): 6.39E-01
  log ratio RRS1 (ILMN_1767658): -7.92E-01
  log ratio RTN2 (probe ILMN_1749115): 8.60E-01
  log ratio RTN3 (probe ILMN_2363065): 7.08E-01
  log ratio S100A4 (ILMN_1688780): 6.50E-01
  log ratio SALL2 (ILMN_1740842): 6.64E-01
  log ratio SBK1 (probe ILMN_1728298): 8.80E-01
  log ratio SCARNA11 (probe ILMN_3236010): 6.95E-01
  log ratio SCARNA13 (probe ILMN_3235325): 7.18E-01
  log ratio SCARNA14 (probe ILMN_3247636): 7.31E-01
  log ratio SCARNA23 (ILMN_3243966): 6.49E-01
  log ratio SCD5 (ILMN_2237428): 6.35E-01
  log ratio SDCBP (probe ILMN_2363586): 8.86E-01
  log ratio SDCBP (probe ILMN_2363591): 8.22E-01
  log ratio SDHA (ILMN_1744210): 6.20E-01
  log ratio SDHAP2 (probe ILMN_3248781): 7.07E-01
  log ratio SEMA4D (probe ILMN_1687533): 7.86E-01
  log ratio SEMA4F (probe ILMN_1805007): 7.51E-01
  log ratio SENP6 (ILMN_2054233): -8.91E-01
  log ratio SEPHS1 (ILMN_1673369): -1.31E+00
  log ratio SEPHS1 (ILMN_2176768): -1.36E+00
  log ratio SEPHS2 (ILMN_1687824): 6.78E-01
  log ratio SERPINB9 (probe ILMN_1742052): 7.55E-01
  log ratio SERPINI1 (probe ILMN_1814333): 7.79E-01
  log ratio SESN1 (ILMN_1800626): 5.92E-01
  log ratio SETMAR (ILMN_1682404): -7.84E-01
  log ratio SFRS7 (ILMN_1778836): -6.07E-01
  log ratio SFXN4 (ILMN_2363361): -9.20E-01
  log ratio SGK (probe ILMN_1702487): 8.82E-01
  log ratio SGSH (ILMN_2133675): 5.92E-01
  log ratio SH3GLB2 (probe ILMN_2158336): 6.85E-01
  log ratio SLC5A6 (ILMN_1741054): -9.72E-01
  log ratio SLC7A1 (ILMN_1683859): -6.20E-01
  log ratio SLC23A2 (probe ILMN_1746578): 7.82E-01
  log ratio SLC25A4 (probe ILMN_1681670): 8.53E-01
  log ratio SLC25A4 (probe ILMN_2211780): 7.98E-01
  log ratio SLC25A13 (ILMN_1668012): -8.15E-01
  log ratio SLC25A23 (probe ILMN_1679949): 7.04E-01
  log ratio SLC35F2 (ILMN_2075189): -9.03E-01
  log ratio SLC38A1 (ILMN_1769911): -9.30E-01
  log ratio SLC38A5 (ILMN_1695058): -1.13E+00
  log ratio SLC39A3 (ILMN_2234970): 6.58E-01
  log ratio SLC39A10 (ILMN_1656129): -5.93E-01
  log ratio SLC43A3 (ILMN_1658407): -9.67E-01
  log ratio SLC43A3 (ILMN_2330307): -8.92E-01
  log ratio SLC44A2 (probe ILMN_1771987): 7.92E-01
  log ratio SLC45A3 (probe ILMN_1726114): 7.11E-01
  log ratio SLFN11 (ILMN_2162860): 6.41E-01
  log ratio SLFN11 (probe ILMN_1752520): 7.62E-01
  log ratio SLTM (ILMN_1742224): -9.17E-01
  log ratio SLTM (ILMN_2395204): -8.02E-01
  log ratio SMG5 (ILMN_2126239): -9.35E-01
  log ratio SNAP23 (probe ILMN_1687519): 8.74E-01
  log ratio SNHG3-RCC1 (ILMN_1707493): -9.37E-01
  log ratio SNORA76 (ILMN_3237562): -5.92E-01
  log ratio SNORA80 (ILMN_3238554): 6.42E-01
  log ratio SNORD31 (probe ILMN_2072391): 7.85E-01
  log ratio SNORD65 (ILMN_3246353): -8.36E-01
  log ratio SNUPN (ILMN_1733932): -7.98E-01
  log ratio SNUPN (ILMN_2364535): -8.42E-01
  log ratio SNX29 (ILMN_1659761): 6.78E-01
  log ratio SORT1 (probe ILMN_1707077): 8.42E-01
  log ratio SPAG1 (ILMN_2367681): 5.96E-01
  log ratio SPAG7 (ILMN_1684446): -8.14E-01
  log ratio SPAG9 (ILMN_1799104): 6.26E-01
  log ratio SPAG9 (probe ILMN_2263718): 7.33E-01
  log ratio SPI1 (ILMN_2392043): -6.03E-01
  log ratio SPINT2 (probe ILMN_1800739): 8.11E-01
  log ratio SPRY1 (ILMN_2329914): 6.03E-01
  log ratio SREBF1 (probe ILMN_1663035): 7.22E-01
  log ratio SRGN (probe ILMN_1760347): 7.62E-01
  log ratio SRGN (probe ILMN_2169152): 7.60E-01
  log ratio SRP72 (ILMN_1683888): -5.90E-01
  log ratio SSPN (ILMN_1775486): -1.34E+00
  log ratio STAG2 (ILMN_1782609): -9.17E-01
  log ratio STARD10 (probe ILMN_1717052): 8.01E-01
  log ratio STK17B (probe ILMN_1798543): 7.91E-01
  log ratio STMN3 (probe ILMN_3244117): 9.01E-01
  log ratio STX3 (probe ILMN_1659544): 8.71E-01
  log ratio SUMO3 (ILMN_1725642): -9.81E-01
  log ratio SUSD3 (probe ILMN_1785570): 8.58E-01
  log ratio SYNGR1 (ILMN_1810875): 6.25E-01
  log ratio TACC1 (probe ILMN_1770084): 7.64E-01
  log ratio TACO1 (ILMN_1685112): -6.19E-01
  log ratio TADA1L (ILMN_1776487): -6.14E-01
  log ratio TANK (probe ILMN_1715069): 8.21E-01
  log ratio TBC1D7 (probe ILMN_1661622): 7.33E-01
  log ratio TBC1D16 (probe ILMN_1758457): 7.24E-01
